The text below walks through data of patent US20230114728A1 (Venatorx Pharmaceuticals, Inc., priority 2019, published 2023).

Molecules are shown by their SMILES. ≈ marks a conversion by molar mass, not a printed value. Where only a bound is given, the exact number is not on record here.

The subject of one assay is N. gonorrhoeae WHO K. Briefly: Liquid broth MIC in Fastidious broth. It is filed as cell-based. Conditions: Neisseria gonorrhoeae, read-out: Minimum Inhibitory Concentration, N. gonorrhoeae WHO K. In outline:
(§1)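 Strains bearing mosaic PBP2 grown 24 h on chocolate agar (36° C, 5% CO2), suspended in saline and added to 2-fold compound dilutions in Fastidious broth at 5×10^5 CFU/mL. After ~24 hours at 36° C with 5% CO2, MIC taken visually as lowest well with <10% growth relative to full growth.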

In the next assay the test system is N. gonorrhoeae FA1090. Briefly: Liquid broth MIC in Fastidious broth. It is filed as cell-based. The note with it: Neisseria gonorrhoeae; N. gonorrhoeae strain FA1090; Fastidious broth; read-out: Minimum Inhibitory Concentration, N. gonorrhoeae FA1090. Put shortly:
(§2)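 Colonies were swabbed from chocolate agar after 24 h growth and standardised by optical density at 600 nm. Compounds were serially diluted twofold in Fastidious broth, and bacteria added to give 5×10^5 CFU/mL. After about 24 h at 36 °C in 5% CO2, the lowest concentration allowing under 10% growth was taken as MIC.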

The test system of a further assay is N. gonorrhoeae H041. The assay is described as follows: Liquid broth MIC in Fastidious broth. The note with it: Neisseria gonorrhoeae, H041, read-out: Minimum Inhibitory Concentration, N. gonorrhoeae H041. It is filed as cell-based. In outline: as §1
For assay [1], the system named is N. gonorrhoeae ATCC 49226. Briefly: Liquid broth MIC in Fastidious broth. It is filed as cell-based. The note with it: Neisseria gonorrhoeae, ATCC49226; N. gonorrhoeae strain ATCC 49226; Fastidious broth; read-out: Minimum Inhibitory Concentration, N. gonorrhoeae ATCC 49226. Put shortly: as §2
The next assay relates to N. gonorrhoeae WHO G. The assay is described as follows: Liquid broth MIC in Fastidious broth. Conditions: Neisseria gonorrhoeae; N. gonorrhoeae strain WHO G; Fastidious broth; read-out: Minimum Inhibitory Concentration, N. gonorrhoeae WHO G. It is filed as cell-based. In outline:
as §2

The test system of another assay is N. gonorrhoeae WHO L. Briefly: Liquid broth MIC in Fastidious broth. Conditions: Neisseria gonorrhoeae; N. gonorrhoeae strain WHO L; Fastidious broth; read-out: Minimum Inhibitory Concentration, N. gonorrhoeae WHO L. It is filed as cell-based. Put shortly:
as §2

The next assay concerns the target T1, E. coli K12 PBP3 (Escherichia coli, UniProt P0AD68).
T1 construct: made in house
The assay is described as follows: biochemical. It is filed as binding. Put shortly: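 A. baumannii PBP2 (2.5 μM) and PBP3 (0.2 μM) were run in 25 mM Tris pH 8.0 buffer with Tween 20; E. coli PBP3 (1.5 μM) and N. gonorrhoeae PBP2 ([…]) in 50 mM Hepes pH 8.0 buffer.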

T1 sequence (P0AD68 1-577): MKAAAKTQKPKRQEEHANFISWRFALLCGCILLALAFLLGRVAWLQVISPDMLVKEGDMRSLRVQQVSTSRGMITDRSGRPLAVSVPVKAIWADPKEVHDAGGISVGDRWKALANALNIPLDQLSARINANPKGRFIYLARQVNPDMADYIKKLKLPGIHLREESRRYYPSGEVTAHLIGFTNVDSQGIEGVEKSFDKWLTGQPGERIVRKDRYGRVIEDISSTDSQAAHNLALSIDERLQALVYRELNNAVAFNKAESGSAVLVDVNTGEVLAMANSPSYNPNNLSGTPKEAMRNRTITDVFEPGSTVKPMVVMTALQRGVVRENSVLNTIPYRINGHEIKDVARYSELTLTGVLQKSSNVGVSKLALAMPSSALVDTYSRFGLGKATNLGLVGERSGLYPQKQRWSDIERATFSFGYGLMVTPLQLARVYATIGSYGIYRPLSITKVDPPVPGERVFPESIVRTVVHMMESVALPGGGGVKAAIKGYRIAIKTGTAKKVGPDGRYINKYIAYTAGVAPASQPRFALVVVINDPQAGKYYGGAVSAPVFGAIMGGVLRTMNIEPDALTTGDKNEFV

Take `CCN1CCN(C(=O)NC(C(=O)N[C@H]2Cc3cccc(C(=O)O)c3OB2O)c2cccc(NC(=O)c3cccnc3)c2)C(=O)C1=O` (stereo partly drawn) [Example 97, (3R)-3-(2-(4-ethyl-2,3-dioxopiperazine-1-carboxamido)-2-(3-(nicotinamido)phenyl)acetamido)-2-hydroxy-3,4-dihydro-2H-benzo[e][1,2]oxaborinine-8-carboxylic acid]: the MIC with N. gonorrhoeae WHO K was over 64 µg/mL; in the assay with N. gonorrhoeae FA1090, 1 to 2 µg/mL (≈ 1.59 to 3.18 µM); in the assay on N. gonorrhoeae H041, over 64 µg/mL; in assay [1] it was over 64 µg/mL; in the assay on N. gonorrhoeae WHO G it was 4 to 8 µg/mL (≈ 6.37 to 12.7 µM); in the assay with N. gonorrhoeae WHO L, over 64 µg/mL. On E. coli K12 PBP3, the EC50 (usually the concentration giving half of the maximal effect) was under 30 µM.
Turning to `CCN1CCN(C(=O)NC(C(=O)N[C@H]2Cc3cccc(C(=O)O)c3OB2O)c2cccc(NS(N)(=O)=O)c2)C(=O)C1=O` (stereo partly drawn) [Example 98, (3R)-3-(2-(4-ethyl-2,3-dioxopiperazine-1-carboxamido)-2-(3-(sulfamoylamino)phenyl)acetamido)-2-hydroxy-3,4-dihydro-2H-benzo[e][1,2]oxaborinine-8-carboxylic acid], the MIC was 16 to 32 µg/mL (≈ 26.6 to 53.1 µM) in the assay on N. gonorrhoeae WHO K; 0.25 to 0.5 µg/mL (≈ 0.415 to 0.83 µM) in the assay with N. gonorrhoeae FA1090; 16 to 32 µg/mL (≈ 26.6 to 53.1 µM) with N. gonorrhoeae H041; 16 to 32 µg/mL (≈ 26.6 to 53.1 µM) in assay [1]; 1 to 2 µg/mL (≈ 1.66 to 3.32 µM) with N. gonorrhoeae WHO G; over 64 µg/mL in the assay with N. gonorrhoeae WHO L. This compound also gave an EC50 on E. coli K12 PBP3 of under 30 µM.
For `CCN1CCN(C(=O)NC(C(=O)N[C@H]2Cc3cccc(C(=O)O)c3OB2O)c2cccc(S(N)(=O)=O)c2)C(=O)C1=O` (stereo partly drawn) [Example 99, (3R)-3-(2-(4-ethyl-2,3-dioxopiperazine-1-carboxamido)-2-(3-sulfamoylphenyl)acetamido)-2-hydroxy-3,4-dihydro-2H-benzo[e][1,2]oxaborinine-8-carboxylic acid], the MIC in the assay on N. gonorrhoeae WHO K was 16 to 32 µg/mL (≈ 27.2 to 54.5 µM); in the assay with N. gonorrhoeae FA1090 it was 0.25 to 0.5 µg/mL (≈ 0.426 to 0.851 µM); with N. gonorrhoeae H041, 16 to 32 µg/mL (≈ 27.2 to 54.5 µM); in assay [1], 16 to 32 µg/mL (≈ 27.2 to 54.5 µM); with N. gonorrhoeae WHO G, 1 to 2 µg/mL (≈ 1.7 to 3.4 µM); in the assay with N. gonorrhoeae WHO L it was over 64 µg/mL. Further, the EC50 at E. coli K12 PBP3 lay within 30 to 500 µM.
